The target of data set [1] is T1, Programmed cell death protein 1/Programmed cell death 1 ligand 1 (Homo sapiens, UniProt Q15116+Q9NZQ7). Kind of data set: Inhibition of PD-1/PD-L1 interaction (unknown origin) by HTRF assay. It counts as protein-complex assay. (In TR-FRET formats the signal depends on donor and acceptor labels being close together.)
The nature of data set [2]: Observed clearance in rat at 1 mg/kg, iv. It counts as ADME, organism-based. The note with it: in vivo.
In data set [3] the target is T1, Programmed cell death protein 1/Programmed cell death 1 ligand 1. Nature of the data set: Inhibition of PD-1/PD-L1 interaction in human PBMCs cocultured with H1299 cells assessed as increase in INFgamma expression at 0.1 uM incubated for 72 hrs in presence of alphaCD3/alphaCD28 by ELISA. It counts as cell-based. The note with it: PBMC. For orientation: ELISA stands for enzyme-linked immunosorbent assay.

The nature of data set [4]: AUClast in rat at 1 mg/kg, iv. It counts as ADME, organism-based. On the set-up: time 0 - last, route intravenous, dose 1 mg/kg. To be noted: in vivo.
Data set [5] is described as follows: Half life in rat at 1 mg/kg, iv. It counts as ADME, organism-based. The note with it: in vivo.
Data set [6] in a line: Observed volume of distribution at steady state in rat at 1 mg/kg, iv. The class given is ADME, organism-based. To be noted: in vivo, read-out: Vdss.
A short description of data set [7]: Microsomal stability in mouse assessed as clearance. It counts as ADME. To be noted: microsomes.
A short description of data set [8]: Microsomal stability in mouse assessed as half life. It counts as ADME. The note with it: microsomes.
A short description of data set [9]: Cmax in rat at 3 mg/kg, po. The class given is ADME, organism-based. On the set-up: route oral, dose 3 mg/kg. The note with it: in vivo.
A short description of data set [10]: Tmax in rat at 3 mg/kg, po. To be noted: in vivo. It counts as ADME, organism-based.
Data set [11] in a line: AUClast in rat at 3 mg/kg, po. It counts as ADME, organism-based. On the set-up: time 0 - last, route oral, dose 3 mg/kg. The note with it: in vivo.
Data set [12] addresses T2, Programmed cell death protein 1/Programmed cell death 1 ligand 1 (Mus musculus) (UniProt Q9EP73+Q02242). Kind of data set: Inhibition of PD1/PDL1 protein-protein interaction in mouse CD8-positive T cells cocultured with Hepa1-6 cells assessed as increase in IFNgamma secretion incubated for 48 hrs in presence of alphaCD3/alphaCD28 and IL-2 stimulation by ELISA. It counts as cell-based. To be noted: dose 0.75-3 µM.

Data set [13] concerns Hepa1-6. Kind of data set: Antitumor activity against […] Hepa1-6 cells xenografted in C57BL/6 mouse model assessed as increase in infiltration of IFNgamma+ GrzB+ CD8+ T-cells in tumor by flow cytometry analysis. The class given is functional, cell-based. (In xenograft studies the graft and the host belong to different species.)
The target in data set [14] is T2, Programmed cell death protein 1/Programmed cell death 1 ligand 1 (Mus musculus). Kind of data set: Inhibition of PD1/PDL1 protein-protein interaction in mouse CD8-positive T cells cocultured with Hepa1-6 cells assessed as increase in ratio of GrzB+ CD8+ T cells at 0.75 to 3 uM incubated for 48 hrs in presence of alphaCD3/alphaCD28 and IL-2 stimulation by flow cytometry analysis. It counts as cell-based. To be noted: dose 0.75-3 µM.

Data set [15] deals with Hepa1-6. Nature of the data set: Antitumor activity against […] Hepa1-6 cells xenografted in C57BL/6 mouse model assessed as increase in infiltration of GrzB+ CD8+ T-cells in tumor by flow cytometry analysis. It counts as functional, cell-based.
Data set [16] concerns the target T2, Programmed cell death protein 1/Programmed cell death 1 ligand 1 (Mus musculus). Nature of the data set: Inhibition of PD1/PDL1 protein-protein interaction in mouse CD8-positive T cells cocultured with Hepa1-6 cells assessed as increase in ratio of IFNgamma+ GrzB+ CD8+ T cells at 0.75 to 3 uM incubated for 48 hrs in presence of alphaCD3/alphaCD28 and IL-2 stimulation by flow cytometry analysis. To be noted: dose 0.75-3 µM. The class given is cell-based.

Data set [17] can be described thus: Antitumor activity against […] Hepa1-6 cells xenografted in C57BL/6 mouse syngeneic model assessed as tumor growth inhibition at 1 mg/kg, IM administered every other day and measured three times per week. To be noted: Hepa1-6, im, read-out: TGI. It counts as functional.
In data set [18] the target is T2, Programmed cell death protein 1/Programmed cell death 1 ligand 1 (Mus musculus). Kind of data set: Inhibition of PD1/PDL1 protein-protein interaction in mouse CD8-positive T cells cocultured with Hepa1-6 cells assessed as increase in ratio of IFNgamma+ CD8+ T cells at 0.75 to 3 uM incubated for 48 hrs in presence of alphaCD3/alphaCD28 and IL-2 stimulation by flow cytometry analysis. The class given is cell-based. To be noted: dose 0.75-3 µM.

Data set [19] has as its system Hepa1-6. Kind of data set: Antitumor activity against […] Hepa1-6 cells xenografted in C57BL/6 mouse model assessed as increase in infiltration of IFNgamma+ CD8+ T-cells in tumor by flow cytometry analysis. It counts as functional, cell-based.
The target of data set [20] is T1, Programmed cell death protein 1/Programmed cell death 1 ligand 1. Nature of the data set: Inhibition of PD-1/PD-L1 interaction in human Jurkat T cells expressing PD-1 cocultured with CHO cells expressing PD-Ll/TCR assessed as activation of Jurkat cells by luciferase reporter gene assay. The class given is cell-based.
The test system of data set [21] is Hepa1-6. Nature of the data set: Antitumor activity against […] Hepa1-6 cells xenografted in C57BL/6 […] mouse model assessed as tumor growth inhibition at 1 mg/kg, IM administered every other day and measured three times per week. It counts as functional, organism-based.
For data set [22], the target named is T2, Programmed cell death protein 1/Programmed cell death 1 ligand 1 (Mus musculus). Kind of data set: Inhibition of PD1/PDL1 protein-protein interaction in mouse CD8-positive T cells cocultured with Hepa1-6 cells assessed as increase in CD107a expression in CD8+ T cells incubated for 5 hrs in presence of alphaCD3/alphaCD28 and IL-2 stimulation by flow cytometry analysis. The note with it: dose 0.75-3 µM. It counts as cell-based.

The values that follow come from ChEMBL document CHEMBL4840360, “Design, Synthesis, and Pharmacological Evaluation of Biaryl-Containing PD-1/PD-L1 Interaction Inhibitors Bearing a Unique Difluoromethyleneoxy Linkage” (J Med Chem, 2021).

Calls of active or inactive are those of the source. The rule behind the calls is not given here. Some results are limits rather than exact numbers.

T1 sequence (Q15116 whole entry): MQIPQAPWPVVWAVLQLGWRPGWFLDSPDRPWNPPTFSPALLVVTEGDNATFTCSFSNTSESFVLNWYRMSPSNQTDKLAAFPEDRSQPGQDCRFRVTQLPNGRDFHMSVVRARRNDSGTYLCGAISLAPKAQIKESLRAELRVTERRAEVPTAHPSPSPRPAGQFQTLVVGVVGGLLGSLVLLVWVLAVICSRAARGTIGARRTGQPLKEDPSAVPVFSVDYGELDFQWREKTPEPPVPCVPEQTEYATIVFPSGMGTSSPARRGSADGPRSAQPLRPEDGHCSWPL
T1 sequence (Q9NZQ7 whole entry): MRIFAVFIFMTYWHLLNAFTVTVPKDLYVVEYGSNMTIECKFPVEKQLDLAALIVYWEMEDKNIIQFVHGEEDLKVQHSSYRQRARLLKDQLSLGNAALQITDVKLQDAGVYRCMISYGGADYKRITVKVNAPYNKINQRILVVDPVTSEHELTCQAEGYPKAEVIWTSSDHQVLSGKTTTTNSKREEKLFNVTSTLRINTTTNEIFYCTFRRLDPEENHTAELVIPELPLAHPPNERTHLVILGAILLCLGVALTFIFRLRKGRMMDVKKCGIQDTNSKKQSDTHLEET

The IC50 is the concentration that inhibits the measured activity by half. `Cc1cc(OC(F)(F)c2cccc(-c3ccc4c(c3)OCCO4)c2C)cc(OCc2cccc(C#N)c2)c1CN[C@@H](C(=O)O)[C@H](C)O` had an IC50 in data set [1] of 54.7 nM.

As for `CC(=O)OCOC(=O)[C@@H]1CCCCN1Cc1cc(Cl)c(OC(F)(F)c2cccc(-c3ccc4c(c3)OCCO4)c2C)cc1OCc1ccnc(C#N)c1`, in [1], 28.8 nM corresponded to half-maximal inhibition (IC50).

`Cc1c(-c2ccc3c(c2)OCCO3)cccc1C(F)(F)Oc1cc(OCc2ccnc(C#N)c2)c(CN2CCCC[C@H]2C(=O)N[C@@H]2C(O)O[C@H](CO)[C@@H](O)[C@@H]2O)cc1Cl` (some centres not stated) gave an IC50 in [1] of 28.8 nM.

As to `Cc1c(-c2ccc3c(c2)OCCO3)cccc1C(F)(F)Oc1cc(OCc2cccc(C#N)c2)c(CNC(C)(CO)CO)cc1Cl`, the IC50 in data set [1] worked out at 5.93 nM.

Regarding `Cc1c(-c2ccc3c(c2)OCCO3)cccc1C(F)(F)Oc1cc(OCc2ccnc(C#N)c2)c(CNC(CO)(CO)CO)cc1Cl`, in data set [1], the IC50 was 6.32 nM.

In data set [1], `Cc1c(-c2ccc3c(c2)OCCO3)cccc1C(F)(F)Oc1cc(OCc2cccc3nonc23)c(CNC(CO)(CO)CO)cc1Cl` gave an IC50 of 7.05 nM.

In data set [1], `Cc1c(-c2ccc3c(c2)OCCO3)cccc1C(F)(F)Oc1cc(OCc2ccnc(C#N)c2)c(CN2CCCC[C@H]2C(=O)OCC(F)(F)F)cc1Cl` registered a half-inhibitory concentration (IC50) of over 1000 nM.

In data set [1], `Cc1cc(OC(F)(F)c2cccc(-c3ccc4c(c3)OCCO4)c2C)cc(OCc2cccc(C#N)c2)c1CNC(C)(CO)CO` showed an IC50 of 16.3 nM.

For orientation: clearance means the volume of plasma or blood freed of the substance per unit of time. High values mean a high capacity for elimination, low ones a low capacity for elimination. The term AUC(0-t) denotes the area under the concentration-time curve up to a stated or last time point. What is called half-life is how long it takes for the measured level to halve. Compound `Cc1c(-c2ccc3c(c2)OCCO3)cccc1C(F)(F)Oc1cc(OCc2ccnc(C#N)c2)c(CN[C@@H](CO)[C@@H](O)[C@@H](O)[C@H](O)CO)cc1Cl` came in with a clearance in data set [2] of 131 mL/min/kg. Also, the inhibition entry in data set [3] was “Active”. Further, the AUC(0-t) in [4] worked out at 141 ng·h/mL. This compound returned an IC50 in [1] of 7.1 nM. In data set [5], this compound gave a half-life of 3.14 h. In addition, in [6], the Vd turned out to be 18 L/kg.

In turn, `CON(C)C(=O)[C@@H]1CCCCN1Cc1cc(Cl)c(OC(F)(F)c2cccc(-c3ccc4c(c3)OCCO4)c2C)cc1OCc1ccnc(C#N)c1` gave an IC50 in [1] of over 1000 nM.

Take `CC(=O)OCCOC(=O)[C@@H]1CCCCN1Cc1cc(Cl)c(OC(F)(F)c2cccc(-c3ccc4c(c3)OCCO4)c2C)cc1OCc1ccnc(C#N)c1`: the IC50 in data set [1] is over 1000 nM.

The term microsomal CLint denotes the rate of metabolic loss divided by the concentration. For the compound `Cc1cc(OCc2cccc(-c3ccc4c(c3)OCCO4)c2C)cc(OCc2cccc(C#N)c2)c1CN[C@H](CO)C(=O)O`, the clearance in data set [2] worked out at 124 mL/min/kg. Also, the microsomal CLint in data set [7] was found to be 52.5 µL/min/mg. Further, in [4], the AUC(0-t) stood at 142 ng·h/mL. This compound also had an IC50 in data set [1] of 48.2 nM. Besides, the half-life in [8] is 1.1 h; in data set [5] it was 0.47 h. Besides, the Vd in data set [6] stood at 1.33 L/kg.

Broadly, the Cmax is the maximum level reached in the sampled fluid or tissue. What is called Tmax is the time at which the peak concentration occurs. Regarding `Cc1c(-c2ccc3c(c2)OCCO3)cccc1C(F)(F)Oc1cc(OCc2cncc(C#N)c2)c(CNC(CO)(CO)CO)cc1Cl`, in [9], the peak level (Cmax) was 4.82 ng/mL. Also, in data set [10], the Tmax amounted to 0.33 h. The compound further displayed a clearance in data set [2] of 89 mL/min/kg. Also, the inhibition entry in [3] was “Active”. The AUC(0-t) was found to be 188 ng·h/mL in [4] and 2.83 ng·h/mL in data set [11]. This compound gave an IC50 in [1] of 5.68 nM. The compound also had a half-life in data set [5] of 1.32 h. In [6], the Vd was 4.18 L/kg.

Turning to `Cc1c(-c2ccc3c(c2)OCCO3)cccc1C(F)(F)Oc1cc(OCc2ccnc(C#N)c2)c(CN[C@@H]2C(O)O[C@H](CO)[C@@H](O)[C@@H]2O)cc1Cl` (some centres not stated), the inhibition entry in data set [12] and in data set [22] was “Dose-Dependent Effect” throughout. The result with Hepa1-6 [13], in the data set on Hepa1-6 [15], in the data set with Hepa1-6 [19] and in the data set with Hepa1-6 [21] was Active. Further, the clearance in [2] came to 40 mL/min/kg. Also, the inhibition entry in data set [14], in data set [3], in data set [16] and in data set [18] was “Active” each time. The intrinsic metabolic clearance (microsomal CLint) in data set [7] turned out to be 46.1 µL/min/mg. The inhibition in vivo at 1 mg/kg in [17] amounted to 53.1%. In data set [4], this compound gave an AUC(0-t) of 464 ng·h/mL. Moreover, the 50% inhibitory concentration (IC50) turned out to be 10.2 nM in data set [1] and 3160 nM in [20]. Moreover, the half-life in data set [8] was 1.25 h; in [5] it was 4.84 h. Also, the Vd in [6] was found to be 3.92 L/kg.

As for `Cc1cc(OC(F)(F)c2cccc(-c3ccc4c(c3)OCCO4)c2C)cc(OCc2cccc(C#N)c2)c1CNC(CO)(CO)CO`, the 50% inhibitory concentration (IC50) in [1] worked out at 30.5 nM.

Turning to `Cc1c(-c2ccc3c(c2)OCCO3)cccc1C(F)(F)Oc1cc(OCc2ccnc(C#N)c2)c(CN2CCCC[C@H]2C(=O)O)cc1Cl`, the concentration in [9] peaked (Cmax) at 0.698 ng/mL. The time of peak concentration (Tmax) in data set [10] worked out at 2.83 h. The same compound yielded a clearance in data set [2] of 143 mL/min/kg. Besides, the inhibition entry in data set [3] was “Active”. Also, the results for the AUC(0-t) in [4] and in data set [11] were 117 ng·h/mL and 0.701 ng·h/mL, respectively. For the same compound, the IC50 in data set [1] came out at 2.99 nM. Also, the half-life in data set [5] is 0.71 h. The Vd in [6] came out at 5.31 L/kg.

Compound `Cc1cc(OC(F)(F)c2cccc(-c3ccc4c(c3)OCCO4)c2C)cc(OCc2cccc(C#N)c2)c1CN[C@H](CO)C(=O)O` showed an IC50 in [1] of 31.9 nM.
